Laboratory results taken from ChEMBL document CHEMBL1201862, “PubChem BioAssay data set” (2004).
Calls of active or inactive are those of the source.

What was measured:
[1] = intracellular Trypanosoma cruzi inhibitors in host cells – cell-based, plate reader, cherry-pick samples, set 3, dose response (AID 651818); assay type: functional;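 also: compounds incubated with infected cells for about four days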
[2] = biological target: Dual specificity tyrosine-phosphorylation-regulated kinase 1A (Rattus norvegicus, UniProt Q63470); assay type: biochemical, Homo sapiens
[3] = biological target: Genome polyprotein (dengue virus type 2, UniProt P29990); assay: flavivirus cap methylation enzyme inhibition – biochemical, confirmation dose response, primary screen (AID 588689); assay type: functional
Sequence of Genome polyprotein (P29990 2492-3391 limits assumed): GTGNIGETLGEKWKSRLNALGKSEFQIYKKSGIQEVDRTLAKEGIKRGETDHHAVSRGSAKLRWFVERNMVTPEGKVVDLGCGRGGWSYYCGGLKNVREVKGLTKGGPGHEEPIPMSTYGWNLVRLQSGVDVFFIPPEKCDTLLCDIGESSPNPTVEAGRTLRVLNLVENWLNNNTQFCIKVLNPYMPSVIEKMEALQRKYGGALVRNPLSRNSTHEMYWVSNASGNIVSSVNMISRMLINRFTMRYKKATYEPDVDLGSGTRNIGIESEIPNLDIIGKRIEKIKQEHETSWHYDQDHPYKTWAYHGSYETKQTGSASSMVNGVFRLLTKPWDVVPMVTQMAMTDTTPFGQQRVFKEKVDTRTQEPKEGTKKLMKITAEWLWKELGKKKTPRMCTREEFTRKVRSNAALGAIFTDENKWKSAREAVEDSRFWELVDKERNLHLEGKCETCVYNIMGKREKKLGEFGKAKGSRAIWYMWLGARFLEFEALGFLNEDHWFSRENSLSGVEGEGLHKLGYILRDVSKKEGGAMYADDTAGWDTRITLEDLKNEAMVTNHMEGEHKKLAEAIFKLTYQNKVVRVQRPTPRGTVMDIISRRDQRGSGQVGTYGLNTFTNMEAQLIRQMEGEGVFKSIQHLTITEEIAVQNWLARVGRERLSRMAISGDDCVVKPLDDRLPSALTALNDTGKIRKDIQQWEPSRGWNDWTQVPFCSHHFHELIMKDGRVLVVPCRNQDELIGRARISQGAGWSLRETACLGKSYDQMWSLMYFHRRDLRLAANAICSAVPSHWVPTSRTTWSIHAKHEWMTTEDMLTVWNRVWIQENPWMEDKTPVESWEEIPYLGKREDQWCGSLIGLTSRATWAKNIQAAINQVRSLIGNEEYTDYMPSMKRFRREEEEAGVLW

[4] = biological target: Beta-galactosidase (Escherichia coli, UniProt Q8VNN2); assay: PubChem AID 485352; assay type: functional
Sequence of Beta-galactosidase (Q8VNN2 whole entry): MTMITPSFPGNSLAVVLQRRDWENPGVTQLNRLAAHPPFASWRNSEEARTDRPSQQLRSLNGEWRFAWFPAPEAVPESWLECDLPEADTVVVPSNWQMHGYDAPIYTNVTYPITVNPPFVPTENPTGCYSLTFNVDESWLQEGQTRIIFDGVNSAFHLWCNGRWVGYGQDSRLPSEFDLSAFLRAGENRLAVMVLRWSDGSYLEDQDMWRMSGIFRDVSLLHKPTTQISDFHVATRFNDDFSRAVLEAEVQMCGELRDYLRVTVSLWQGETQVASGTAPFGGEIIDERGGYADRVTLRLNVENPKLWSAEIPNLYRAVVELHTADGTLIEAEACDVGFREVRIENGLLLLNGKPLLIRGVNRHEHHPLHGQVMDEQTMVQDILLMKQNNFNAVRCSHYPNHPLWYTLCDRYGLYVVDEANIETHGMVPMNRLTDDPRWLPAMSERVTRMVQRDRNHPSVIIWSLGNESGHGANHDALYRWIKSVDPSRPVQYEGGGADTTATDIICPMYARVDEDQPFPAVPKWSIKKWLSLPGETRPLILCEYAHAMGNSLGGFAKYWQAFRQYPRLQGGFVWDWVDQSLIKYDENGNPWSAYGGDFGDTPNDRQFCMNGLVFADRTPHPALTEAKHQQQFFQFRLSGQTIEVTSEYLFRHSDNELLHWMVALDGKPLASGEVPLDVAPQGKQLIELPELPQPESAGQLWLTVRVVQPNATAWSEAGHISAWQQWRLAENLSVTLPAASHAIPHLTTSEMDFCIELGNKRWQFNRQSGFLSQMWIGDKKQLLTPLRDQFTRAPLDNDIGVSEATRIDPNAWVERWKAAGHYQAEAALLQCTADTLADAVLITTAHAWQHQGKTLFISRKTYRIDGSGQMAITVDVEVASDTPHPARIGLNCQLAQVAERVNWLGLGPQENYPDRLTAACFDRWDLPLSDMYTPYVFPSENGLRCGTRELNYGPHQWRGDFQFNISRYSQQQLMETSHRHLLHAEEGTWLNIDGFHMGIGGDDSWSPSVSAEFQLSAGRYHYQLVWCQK

[5] = biological target: T1, Type-1 angiotensin II receptor (Homo sapiens, UniProt P30556); assay: antagonism of angiotensin II type 1 receptor – cell-based, uHTS hits, selectivity assay for APJ receptor antagonist project, dose response (AID 463214); assay type: functional;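 also: antagonist potency against angiotensin II stimulated AT1 response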
T1 sequence (P30556 whole entry): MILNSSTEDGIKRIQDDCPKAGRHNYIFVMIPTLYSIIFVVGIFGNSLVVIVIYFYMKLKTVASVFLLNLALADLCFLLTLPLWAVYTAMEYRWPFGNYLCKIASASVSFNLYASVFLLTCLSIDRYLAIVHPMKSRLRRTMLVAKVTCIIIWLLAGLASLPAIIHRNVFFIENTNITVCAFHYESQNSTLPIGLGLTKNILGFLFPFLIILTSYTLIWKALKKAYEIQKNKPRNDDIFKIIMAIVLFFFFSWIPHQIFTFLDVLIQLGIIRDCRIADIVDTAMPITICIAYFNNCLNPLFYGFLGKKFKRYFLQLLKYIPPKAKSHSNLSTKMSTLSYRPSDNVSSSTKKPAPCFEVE

[6] = biological target: T2, Sentrin-specific protease 8 (Homo sapiens, UniProt Q96LD8); assay type: functional
T2 sequence (Q96LD8 whole entry): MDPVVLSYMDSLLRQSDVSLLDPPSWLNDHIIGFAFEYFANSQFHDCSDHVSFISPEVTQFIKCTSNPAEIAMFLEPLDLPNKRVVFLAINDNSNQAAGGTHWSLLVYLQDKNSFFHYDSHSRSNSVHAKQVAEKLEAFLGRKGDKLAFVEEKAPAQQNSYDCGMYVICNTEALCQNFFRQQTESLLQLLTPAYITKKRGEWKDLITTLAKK

[7] = biological target: T2, Sentrin-specific protease 8; assay type: functional; remark: listed apart in the source
[8] = biological target: Cytochrome P450 2C9 (Homo sapiens, UniProt P11712)
Sequence of Cytochrome P450 2C9 (P11712 whole entry): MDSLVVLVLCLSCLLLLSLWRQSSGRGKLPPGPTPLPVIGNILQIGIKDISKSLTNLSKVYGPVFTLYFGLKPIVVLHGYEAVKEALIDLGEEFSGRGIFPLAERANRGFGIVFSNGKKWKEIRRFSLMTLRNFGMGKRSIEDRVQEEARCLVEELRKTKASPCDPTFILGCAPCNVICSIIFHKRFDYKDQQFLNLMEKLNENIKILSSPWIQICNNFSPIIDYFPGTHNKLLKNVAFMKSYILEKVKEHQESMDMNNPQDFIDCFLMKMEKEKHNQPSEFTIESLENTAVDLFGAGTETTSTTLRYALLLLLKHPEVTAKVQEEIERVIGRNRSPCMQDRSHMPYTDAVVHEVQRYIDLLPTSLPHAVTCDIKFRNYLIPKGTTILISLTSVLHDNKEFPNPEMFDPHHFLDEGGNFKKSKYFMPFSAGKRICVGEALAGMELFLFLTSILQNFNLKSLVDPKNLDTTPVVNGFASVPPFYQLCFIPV

[9] = biological target: Cytochrome P450 3A4 (Homo sapiens, UniProt P08684);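 also: CYP3A4 tested as one member of a cytochrome P450 panel screen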
Sequence of Cytochrome P450 3A4 (P08684 whole entry): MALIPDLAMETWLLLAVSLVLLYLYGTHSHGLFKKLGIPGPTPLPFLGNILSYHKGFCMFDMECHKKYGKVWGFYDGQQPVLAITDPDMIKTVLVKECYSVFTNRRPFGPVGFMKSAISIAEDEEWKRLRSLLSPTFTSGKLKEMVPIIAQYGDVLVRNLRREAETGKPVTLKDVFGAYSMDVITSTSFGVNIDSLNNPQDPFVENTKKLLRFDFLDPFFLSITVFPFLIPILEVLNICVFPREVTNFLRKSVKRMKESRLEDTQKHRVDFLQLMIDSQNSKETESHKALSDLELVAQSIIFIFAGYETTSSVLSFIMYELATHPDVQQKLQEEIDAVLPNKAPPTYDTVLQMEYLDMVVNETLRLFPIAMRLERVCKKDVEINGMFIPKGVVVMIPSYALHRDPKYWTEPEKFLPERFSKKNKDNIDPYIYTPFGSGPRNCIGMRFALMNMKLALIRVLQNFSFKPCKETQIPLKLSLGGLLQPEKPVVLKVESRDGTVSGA

[10] = biological target: Cytochrome P450 2C19 (Homo sapiens, UniProt P33261); assay: Cytochrome panel assay with activity outcomes. Panel member name: p450-cyp2c19 Compounds with AC50 equal or less than 10 uM are considered active; assay type: functional; conditions: read-out: AC50
Sequence of Cytochrome P450 2C19 (P33261 whole entry): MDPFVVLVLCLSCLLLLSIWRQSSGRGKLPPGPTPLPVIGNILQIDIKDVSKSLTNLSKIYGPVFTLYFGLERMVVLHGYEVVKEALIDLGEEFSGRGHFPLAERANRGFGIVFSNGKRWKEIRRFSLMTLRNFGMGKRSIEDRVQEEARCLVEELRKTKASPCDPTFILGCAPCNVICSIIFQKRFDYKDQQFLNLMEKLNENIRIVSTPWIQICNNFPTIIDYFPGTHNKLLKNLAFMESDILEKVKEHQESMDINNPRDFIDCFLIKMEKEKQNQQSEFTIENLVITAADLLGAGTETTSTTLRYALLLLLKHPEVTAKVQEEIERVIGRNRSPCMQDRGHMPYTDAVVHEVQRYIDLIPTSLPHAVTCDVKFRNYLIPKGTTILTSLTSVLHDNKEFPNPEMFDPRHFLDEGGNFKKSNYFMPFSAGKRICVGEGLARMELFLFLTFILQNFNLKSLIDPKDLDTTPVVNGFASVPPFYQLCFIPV

[11] = biological target: T3, Cytochrome P450 1A2 (Homo sapiens, UniProt P05177);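 also: PubChem cytochrome P450 panel assay, CYP1A2 panel member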
T3 sequence (P05177 whole entry): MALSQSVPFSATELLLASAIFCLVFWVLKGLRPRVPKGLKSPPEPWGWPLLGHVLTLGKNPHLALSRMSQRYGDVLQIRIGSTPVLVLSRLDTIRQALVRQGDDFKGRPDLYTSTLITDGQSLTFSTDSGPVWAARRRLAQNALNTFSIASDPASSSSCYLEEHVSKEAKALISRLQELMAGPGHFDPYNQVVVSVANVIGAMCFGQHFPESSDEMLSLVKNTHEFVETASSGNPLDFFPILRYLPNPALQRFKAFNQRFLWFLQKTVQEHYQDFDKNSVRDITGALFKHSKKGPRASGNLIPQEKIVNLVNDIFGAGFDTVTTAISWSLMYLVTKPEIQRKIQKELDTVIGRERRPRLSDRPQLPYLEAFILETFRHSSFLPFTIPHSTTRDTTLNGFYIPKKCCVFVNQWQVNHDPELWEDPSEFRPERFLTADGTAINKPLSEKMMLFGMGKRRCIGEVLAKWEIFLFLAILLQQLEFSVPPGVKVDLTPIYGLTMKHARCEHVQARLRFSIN

[12] = activation of miR-122 Renilla sensor silencing – cell-based, Huh7 psiCHECK-miR122, Renilla luciferase, cherry-picked, dose response (AID 651956); assay type: functional;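 also: huh7 hepatoma cells stably carrying a psiCHECK-2 miR-122 sensor plasmid; renilla luciferase signal reporting endogenous miR-122 activity after 48 h compound exposure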
[13] = biological target: T4, Apoptotic protease-activating factor 1 (Homo sapiens, UniProt O14727); assay type: functional
T4 sequence (O14727 whole entry): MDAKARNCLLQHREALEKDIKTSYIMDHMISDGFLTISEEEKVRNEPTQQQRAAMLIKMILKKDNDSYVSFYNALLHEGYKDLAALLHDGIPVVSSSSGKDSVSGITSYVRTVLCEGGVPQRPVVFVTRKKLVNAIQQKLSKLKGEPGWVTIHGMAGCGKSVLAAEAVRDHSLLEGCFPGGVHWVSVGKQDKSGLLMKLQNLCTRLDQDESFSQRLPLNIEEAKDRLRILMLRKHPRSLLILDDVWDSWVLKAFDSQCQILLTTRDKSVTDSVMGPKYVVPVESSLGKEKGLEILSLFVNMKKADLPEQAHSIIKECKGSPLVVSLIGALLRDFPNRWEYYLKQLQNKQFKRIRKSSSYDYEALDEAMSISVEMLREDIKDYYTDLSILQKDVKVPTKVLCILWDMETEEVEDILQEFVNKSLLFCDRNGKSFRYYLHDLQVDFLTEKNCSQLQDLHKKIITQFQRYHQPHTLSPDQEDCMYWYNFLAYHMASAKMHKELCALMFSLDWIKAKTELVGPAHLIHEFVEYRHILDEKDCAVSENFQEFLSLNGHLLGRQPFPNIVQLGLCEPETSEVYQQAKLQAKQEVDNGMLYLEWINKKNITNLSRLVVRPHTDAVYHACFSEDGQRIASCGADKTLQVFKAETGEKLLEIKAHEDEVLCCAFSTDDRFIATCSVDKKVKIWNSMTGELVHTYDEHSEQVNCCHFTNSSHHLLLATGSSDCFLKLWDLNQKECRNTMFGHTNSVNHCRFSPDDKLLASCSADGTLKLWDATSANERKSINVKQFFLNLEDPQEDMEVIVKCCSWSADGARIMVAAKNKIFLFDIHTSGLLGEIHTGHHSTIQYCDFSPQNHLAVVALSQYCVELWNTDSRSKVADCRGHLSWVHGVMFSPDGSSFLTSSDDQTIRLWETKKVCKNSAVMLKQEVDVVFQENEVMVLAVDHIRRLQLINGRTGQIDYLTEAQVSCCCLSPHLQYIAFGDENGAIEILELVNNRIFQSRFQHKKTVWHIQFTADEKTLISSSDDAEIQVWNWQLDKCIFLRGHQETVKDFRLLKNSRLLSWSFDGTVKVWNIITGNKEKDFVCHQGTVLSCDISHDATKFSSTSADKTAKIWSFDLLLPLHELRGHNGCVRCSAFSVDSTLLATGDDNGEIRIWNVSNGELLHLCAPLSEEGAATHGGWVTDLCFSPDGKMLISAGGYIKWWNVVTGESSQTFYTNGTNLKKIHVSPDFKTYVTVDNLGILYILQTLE

[14] = Luminescence Cell-Based Dose Retest to Confirm Inhibitors of Cancer Stem Cells. [Related pubchem assays (depositor defined):AID2717, AID2721]; assay type: functional; conditions: Homo sapiens
[15] = biological target: T5, Replicative DNA helicase DnaB (Mycobacterium tuberculosis, UniProt P9WMR3); assay: DnaB intein splicing inhibitors, dose response, biochemical, cell-free fluorescence (AID 449749); assay type: functional
T5 sequence (P9WMR3 whole entry): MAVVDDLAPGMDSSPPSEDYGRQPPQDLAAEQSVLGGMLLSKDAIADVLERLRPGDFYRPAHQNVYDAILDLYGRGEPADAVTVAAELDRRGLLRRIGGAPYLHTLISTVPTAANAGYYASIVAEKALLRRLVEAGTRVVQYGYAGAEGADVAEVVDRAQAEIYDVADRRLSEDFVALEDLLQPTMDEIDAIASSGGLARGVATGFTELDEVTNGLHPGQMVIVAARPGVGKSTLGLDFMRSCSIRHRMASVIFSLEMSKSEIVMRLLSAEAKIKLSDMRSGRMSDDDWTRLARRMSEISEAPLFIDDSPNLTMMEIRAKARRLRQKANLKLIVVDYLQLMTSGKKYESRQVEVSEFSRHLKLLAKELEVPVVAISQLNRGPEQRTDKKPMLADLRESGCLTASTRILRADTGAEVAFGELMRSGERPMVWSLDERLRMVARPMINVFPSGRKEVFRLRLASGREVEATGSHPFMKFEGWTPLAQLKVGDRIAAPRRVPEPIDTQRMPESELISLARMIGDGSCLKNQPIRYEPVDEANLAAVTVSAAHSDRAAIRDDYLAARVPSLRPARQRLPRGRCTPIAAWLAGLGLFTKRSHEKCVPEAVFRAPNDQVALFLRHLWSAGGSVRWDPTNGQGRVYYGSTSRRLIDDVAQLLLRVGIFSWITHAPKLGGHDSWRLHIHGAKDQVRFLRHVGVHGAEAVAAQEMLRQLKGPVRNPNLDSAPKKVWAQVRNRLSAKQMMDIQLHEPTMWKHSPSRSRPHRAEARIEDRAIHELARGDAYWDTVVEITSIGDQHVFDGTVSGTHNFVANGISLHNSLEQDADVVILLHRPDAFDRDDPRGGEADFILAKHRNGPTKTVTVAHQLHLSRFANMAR

[16] = biological target: T6, Protein RecA (Mycobacterium tuberculosis, UniProt P9WHJ3); assay: Fluorescence Cell-Free Homogeneous Dose Retest to Identify Inhibitors of RecA-Intein Splicing Activity. [Related pubchem assays (depositor defined):AID2097, AID2223, AID489010, AID492950]; assay type: functional
T6 sequence (P9WHJ3 whole entry): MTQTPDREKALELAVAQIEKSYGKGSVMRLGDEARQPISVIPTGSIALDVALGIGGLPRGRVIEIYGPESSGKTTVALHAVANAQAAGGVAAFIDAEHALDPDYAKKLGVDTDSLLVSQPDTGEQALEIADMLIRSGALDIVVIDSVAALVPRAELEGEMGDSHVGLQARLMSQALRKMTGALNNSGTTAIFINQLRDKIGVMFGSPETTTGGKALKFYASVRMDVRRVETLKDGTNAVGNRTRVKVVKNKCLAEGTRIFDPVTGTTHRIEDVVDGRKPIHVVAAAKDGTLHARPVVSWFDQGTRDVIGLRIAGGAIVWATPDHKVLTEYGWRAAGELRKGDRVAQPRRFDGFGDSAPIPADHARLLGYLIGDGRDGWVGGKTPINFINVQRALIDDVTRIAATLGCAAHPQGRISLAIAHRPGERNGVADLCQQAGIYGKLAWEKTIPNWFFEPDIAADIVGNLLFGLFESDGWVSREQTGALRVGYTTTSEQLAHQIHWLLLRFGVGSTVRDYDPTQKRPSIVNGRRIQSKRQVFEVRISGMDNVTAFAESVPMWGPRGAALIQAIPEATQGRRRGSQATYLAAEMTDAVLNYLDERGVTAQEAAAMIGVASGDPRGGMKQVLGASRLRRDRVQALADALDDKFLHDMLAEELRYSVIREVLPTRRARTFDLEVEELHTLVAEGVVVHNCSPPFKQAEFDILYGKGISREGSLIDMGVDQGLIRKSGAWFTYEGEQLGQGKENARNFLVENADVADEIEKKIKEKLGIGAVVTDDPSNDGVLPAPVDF

[17] = test system: SN12K1; assay: cells; assay type: functional; conditions: Homo sapiens
[18] = test system: P388/ADR; assay: cells; assay type: functional; conditions: Mus musculus

With `Cc1noc(C)c1S(=O)(=O)Nc1ccc2c(c1)CC(=O)N([C@H](C)CO)C[C@H](C)[C@H](CN(C)Cc1ccc(C(=O)Nc3ccccc3N)cc1)O2` the AC50 [1] was 2.36 µM (active).

With `C[C@@H]1CCCCO[C@@H](CN(C)C(=O)Nc2ccc(C(F)(F)F)cc2)[C@@H](C)CN([C@H](C)CO)C(=O)c2cc(NC(=O)Nc3ccccc3)ccc2O1` the AC50 [1] was 3.75 µM (active).

In the case of `O=C1NC(=O)/C(=C/c2ccc(-c3cc(C(=O)O)ccc3Cl)o2)S1`, the AC50 [2] is reported as 2.56 µM (active) and the IC50 [3] is reported as 49.4 µM (active).

In the case of `CSCCC(NC(=O)COc1ccccc1)C(=O)OCC(=O)c1cc2ccccc2o1` (stereo not drawn), the EC50 [4] is reported as > 40 µM (inactive) and the IC50 [5] is reported as 31.2 µM (not active).

With `N#CC1(CCCN2CCCCC2)c2ccccc2CCc2ccccc21` the IC50 [6] was 35.4 µM (active) and the IC50 [7] was 43.4 µM (active).

In the case of `COc1ccc(NC(=O)Nc2ccc3c(c2)C(=O)N([C@H](C)CO)C[C@H](C)[C@@H](CN(C)Cc2ccc(Cl)c(Cl)c2)OCCCC[C@@H](C)O3)cc1`, the AC50 [1] is reported as 4.1 µM (active).

For `O=C1C2C3C=CC(CC3)C2C(=O)N1/N=C/c1ccccc1O` (stereo not drawn), the AC50 [8] was 14.1 µM (inconclusive), the AC50 [9] was “inconclusive” and the AC50 [10] was 15.8 µM (inconclusive). For the same molecule, the AC50 [11] was 1.78 µM (inconclusive).

For `COc1ccccc1NCC(=O)c1ccc(Cl)cc1`, the EC50 [4] was > 40 µM (inactive) and the IC50 [5] was 35.3 µM (not active).

With `COCC(=O)N(C)C[C@H]1Oc2cc(C#Cc3cccnc3)ccc2S(=O)(=O)N([C@@H](C)CO)C[C@@H]1C` the AC50 [12] was 32.8 µM (active).

In the case of `O=C(NCC(c1ccco1)N1CCCC1)c1cccc(S(=O)(=O)Nc2ccc(Br)cc2)c1` (stereo not drawn), the IC50 [13] is reported as 45.8 µM (active).

For `COc1ccc(-c2cc(=O)n(-c3ccc([N+](=O)[O-])cc3)[nH]2)cc1`, the AC50 [14] was 10 µM (active), the IC50 [6] was 17.6 µM (active) and the AC50 [15] was 2.75 µM (active). For the same molecule, the IC50 [7] was 25.2 µM (active) and the EC50 [16] was 2.42 µM (active).

For `N#CC(C#N)=CC1=C2OC(c3ccccc3)=CC(c3ccccc3)=C2CCC1`, the EC50 [4] was > 40 µM (inactive) and the IC50 [5] was > 40 µM (not active).

In the case of `C[C@@H]1CN([C@H](C)CO)C(=O)Cc2cc(NC(=O)Nc3cccc4ccccc34)ccc2O[C@@H]1CN(C)Cc1ccc2c(c1)OCO2`, the AC50 [1] is reported as 2.61 µM (active).

With `O=C(CCCN1CCc2[nH]c3ccc(F)cc3c2C1)c1ccc(F)cc1` the IC50 [13] was 7.9 µM (active).

With `NC(=O)C#CC(N)=O` the GI50 [17] was 12.9 µM (inactive) and the GI50 [18] was 1.02 µM (active).
